Assays:
[1] = system: rabbit corneas subjected to epithelial debridement; assay: Corneal epithelial healing in rabbit eyes; type: in vivo
Method: Rabbits were used to evaluate the ability of formulations to accelerate corneal epithelial wound healing in-vivo. Xylazine was used to induce analgesia in the rabbits with intramuscular injections of about 6 mg/kg. Proparacaine 0.5% weight/volume eye drops were also used as supplemental analgesia.
The eyes were kept open during the depredation using a speculum.
Using cotton buds, about 10% of alcohol was applied to the central regions of rabbit corneas for about 20 seconds. Then epithelia within an 8 mm diameter circle in were mechanically scraped using a blunt spatula. After that, eyes were washed several times using normal saline to remove scraped epithelial cells and residual alcohol that can induce corneal irritations.
The rabbits were divided into five treatment groups. Each group contained four animals. Right eyes were selected to receive normal saline while left eyes were assigned to receive the treatment.
The treatment was either about 200 μl (4 drops) of 5% ascorbic acid solution in 0.2 N sodium phosphate buffer pH 7.4, blank oily eye drops, AA as oily eye drops and AA-2G as oily eye drops.
The treatments were administered topically to the wounded eyes, along with topical ofloxacin antibiotic drops (Oflox, Allergan, Inc.), immediately following surgery and 6, 12, 24, 30, 36, 48, 54, 60 and 72-hour post-surgery.
Throughout the healing process, rabbits were closely monitored for evidence of distress or infection, and epithelial wound closure was examined at each dosing time point by applying about 50 μL of 0.25% topical fluorescein eye drops to the injured cornea and imaging the wound under cobalt blue light.
The area of each epithelial defect was measured using “ImageJ”, an image analysis software. Percent healing (“H %”) was calculated as a percentage of the initial wound area. According to the following equation: […]
Wherein Ai indicates the wound area at a given time point and A0 indicates the initial wound area.

[2] = Transcorneal permeation study, Franz-type diffusion cells; type: in vitro ADME, sheep; conditions: AA-2G, mean ± SD, n = 3
Method: (§1) In vitro permeation and accumulation studies were performed on freshly excised sheep cornea obtained from a local slaughterhouse within an hour after the slaughter of the animals.
After the preparation of excised cornea, it was directly fixed between the donor and receptor compartments of Franz-type diffusion cells in such a way that its epithelial surface was facing the donor compartment and the endothelial surface was facing the receptor compartment.
The diameter of the diffusion area of the diffusion cells was 11 mm, producing an effective diffusion area of about 0.95 cm^2. The receptor compartment was filled with about 12 ml of normal saline solution stirred using teflon-coated magnetic stirring bars and maintained at a temperature of about 37° C. by circulating warm water through the water jacket around the receptor compartment. Special care was taken to expel air bubbles from the receptor fluid.
The permeation study was carried out by placing about 1 ml of either the prepared AA-2G loaded S/O nano-dispersion, AA-2G solution or normal saline on top of the cornea in the donor compartment.
An aliquot (about 0.3 ml) of the receptor fluid was withdrawn at about 0.5, 1, 1.5, 2, 3, 4, and 6 hours after beginning the experiment and replaced by an equal volume of fresh receptor solution. The receptor fluid content of AA-2G was determined quantitatively using the High-performance liquid chromatography (“HPLC”) method.

[3] = Corneal accumulation study (AA-2G entrapped within the corneal tissue after the permeation study); type: in vitro ADME, sheep; conditions: Qr6 hr; AA-2G in corneal tissue; mean ± SD, n = 3
Method: as §1
To quantify the amount of AA-2G entrapped within the corneal tissue after finishing the in vitro permeation study, the diffusion cells were dismantled, the corneas were quickly washed with normal saline to remove the surface-attached AA-2G, then the diffusional areas were cut out and digested using about 0.5 ml of 0.5 M NaOH for about 12 hours at about 37° C. in a shaker incubator to obtain a solution. After that, about 0.5 ml of ethanol and about 1 ml of acetonitrile were added to this solution to precipitate the dissolved proteins. The samples were then centrifuged at about 8000 rpm for about 10 minutes. The supernatants were taken and diluted with the mobile phase for HPLC analysis.

Which results are given for `O=C1O[C@H]([C@@H](O)CO)C(O)=C1O` [AA solution, ascorbic acid]?
relative healing rate (normalized to normal saline) ([1]; 6-hour): 3.28; relative healing rate (normalized to normal saline) ([1]; 12-hours): 1.39; % healing ([1]; after 6 hours, topical, rabbit, n=4): 22.9%; wound-healing rate enhancement vs control (normal saline) ([1]; first 6 hours): up to 3.28 folds; effect on corneal epithelial healing ([1]; rabbit eyes, topical, vs normal saline): significantly increased

With `O=C1O[C@H]([C@@H](O)CO)C(O)=C1O[C@H]1O[C@H](CO)[C@@H](O)[C@H](O)[C@H]1O` [AA-2G solution, Ascorbyl glucoside] as the compound, how does the “Amount permeated per unit area Qt” value ([2]; Time 0.5 hr) read?
Its value is 0.00 μg/cm2.

And the “Amount permeated per unit area Qt” value ([2]; Time 1 hr)?
The value was 0.00 μg/cm2.

And the “Amount permeated per unit area Qt” value ([2]; Time 1.5 hr)?
Its value is 0.00 μg/cm2.

And the “Amount permeated per unit area Qt” value ([2]; Time 2 hr)?
The value was 0.00 μg/cm2.

And the “Amount permeated per unit area Qt” value ([2]; Time 3 hr)?
The value was 4.56 ± 3.29 μg/cm2.

What about the “Amount permeated per unit area Qt” value ([2]; Time 4 hr) of the same compound?
The value was 11.21 ± 3.67 μg/cm2.

What about the “Amount permeated per unit area Qt” value ([2]; Time 6 hr) of the same compound?
Its value is 41.02 ± 0.21 μg/cm2.

What about the “Amount accumulated per unit area Qr (accumulation)” value [3] of the same compound?
The value was 30.91 ± 1.04 μg/cm2.
